Consider 13 molecules from PubChem BioAssay (NCI).

SMILES strings stand for the structures.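 Dose response: 5 concentrations. Exposure: 48 h. Format: 96-well plates. Endpoint: linear interpolation; highest concentration if not reached. TGI is the concentration that stops growth completely.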

Some test systems named below: A549 NSCLC; COLO 205 colon; HOP-62 NSCLC; MCF7 breast; MDA-N; NCI-H23 lung; NCI-H460 lung; SN12C renal; SW-620 colon; TK-10 renal; HCC-2998 colon; OVCAR-4 ovarian.
What all share (assay): NCI-60 cell line screen, 48 h

`CCSC1=N/C(=C\c2ccco2)C(Cl)=N1`: the TGI in the assay with A549 NSCLC, in the assay on COLO 205 colon, in the assay on HOP-62 NSCLC, in the assay with MCF7 breast, with MDA-N and in the assay with NCI-H23 lung was above 100 µM in each case. Moreover, the TGI in the assay on NCI-H460 lung, in the assay with SN12C renal, with SW-620 colon and with TK-10 renal was above 100 µM in each case.

For the molecule `Cc1cc(NCCCCCCCCCC[n+]2c(C)cc(N)c3ccccc32)c2ccccc2n1`, the TGI in the assay on A549 NSCLC is 61.8 µM; with COLO 205 colon it was 1.22 µM; with HCC-2998 colon, 6.01 µM; with HOP-62 NSCLC, 30.1 µM; with MCF7 breast, above 100 µM; in the assay on MDA-N it was 3.61 µM. Besides, the TGI is 6.54 µM in the assay on NCI-H23 lung; above 100 µM in the assay with OVCAR-4 ovarian; 5.85 µM in the assay on SN12C renal; 21.2 µM with SW-620 colon; 18.3 µM in the assay on TK-10 renal.

Turning to `COc1cc(NCc2ccc3nc(OC)c(OC)nc3c2)cc(OC)c1OC`, the TGI in the assay with A549 NSCLC, in the assay on COLO 205 colon, in the assay with HCC-2998 colon, in the assay on HOP-62 NSCLC, in the assay on MCF7 breast and in the assay on MDA-N was above 100 µM each time. The TGI in the assay with NCI-H23 lung, in the assay with NCI-H460 lung, in the assay with OVCAR-4 ovarian, in the assay with SN12C renal and in the assay on SW-620 colon was above 100 µM in each case.

For the molecule `Cc1ccc(SCC(CF)OCn2cc(F)c(=O)[nH]c2=O)cc1` (stereo not given), the TGI in the assay with A549 NSCLC, with HCC-2998 colon, with HOP-62 NSCLC, with MCF7 breast, with MDA-N and in the assay on NCI-H23 lung was above 100 µM each time. Besides, the TGI in the assay with NCI-H460 lung, with OVCAR-4 ovarian, in the assay with SW-620 colon and in the assay with TK-10 renal was above 100 µM each time.

In the case of `COC(=O)C(=O)C(C(=O)C(=O)Nc1ccccc1C(C)=O)c1nc2ccc(C(=O)c3ccccc3)cc2[nH]c1=O` (stereo not given), the TGI in the assay with A549 NSCLC, in the assay with HCC-2998 colon, in the assay with HOP-62 NSCLC, with MCF7 breast, in the assay with MDA-N and with NCI-H23 lung was above 100 µM in each case. The TGI in the assay with NCI-H460 lung, with OVCAR-4 ovarian, with SN12C renal and in the assay on TK-10 renal was above 100 µM in each case.

Regarding `N#Cc1sc2c(c1OC(=O)c1cccs1)c(=O)n(-c1ccccc1)c(=S)n2-c1ccccc1`, the TGI in the assay with A549 NSCLC was above 100 µM; in the assay on COLO 205 colon, 42.5 µM; in the assay with HOP-62 NSCLC it was 49.5 µM; in the assay with MCF7 breast, 49.7 µM; in the assay with MDA-N, 68.5 µM; in the assay with NCI-H23 lung, 93.5 µM. The TGI with NCI-H460 lung was above 100 µM; in the assay with OVCAR-4 ovarian, 73.5 µM; in the assay with SN12C renal, 47.2 µM; in the assay with SW-620 colon it was 84.6 µM; with TK-10 renal, above 100 µM.

For `CSC1=N/C(=C\c2ccco2)C(=O)N1CN1CCCCC1`, the TGI in the assay on A549 NSCLC, in the assay on COLO 205 colon, in the assay with HOP-62 NSCLC, with MCF7 breast, with MDA-N and in the assay with NCI-H23 lung was above 100 µM each time. For the same molecule, the TGI in the assay on SN12C renal, with SW-620 colon and with TK-10 renal was above 100 µM in each case.

As for `Cn1c(Nc2ccccc2)c(C=Nc2ccccc2)c(=O)n(C)c1=O`, the TGI was above 100 µM in the assay with A549 NSCLC; 79.7 µM in the assay on HOP-62 NSCLC; above 100 µM with MCF7 breast; above 100 µM with MDA-N; above 100 µM with NCI-H23 lung; above 100 µM in the assay on NCI-H460 lung. For the same molecule, the TGI with OVCAR-4 ovarian, with SN12C renal, in the assay on SW-620 colon and with TK-10 renal was above 100 µM throughout.

Take `O=C(C1C(c2ccccc2)N1C(c1ccccc1)c1ccccc1)C1C(c2ccccc2)N1C(c1ccccc1)c1ccccc1` (stereo not given): the TGI with A549 NSCLC was above 100 µM; in the assay with HCC-2998 colon, 37.8 µM; in the assay with HOP-62 NSCLC it was above 100 µM; in the assay with MCF7 breast, 22.4 µM; in the assay with MDA-N, above 100 µM; in the assay with NCI-H460 lung it was 29.5 µM. Further, the TGI in the assay with OVCAR-4 ovarian was above 100 µM; with SN12C renal, 46.9 µM; in the assay with SW-620 colon, 37.2 µM; with TK-10 renal, 60.9 µM.

In the case of `CN(C(=O)Cc1ccc(Cl)c(Cl)c1)[C@@H]1CCCC[C@H]1[N+]1(C)CC=CC1`, the TGI in the assay with A549 NSCLC, with COLO 205 colon, with HCC-2998 colon, in the assay on HOP-62 NSCLC, in the assay with MCF7 breast and in the assay on MDA-N was above 100 µM in each case. Also, the TGI in the assay on NCI-H23 lung, in the assay with OVCAR-4 ovarian, in the assay with SN12C renal, in the assay on SW-620 colon and in the assay with TK-10 renal was above 100 µM in each case.

Consider `O=c1[nH]nc(Cc2ccccc2)n1/N=C/c1ccccc1Cl`, for which the TGI with A549 NSCLC, with COLO 205 colon, with HCC-2998 colon, in the assay on MCF7 breast, with MDA-N and in the assay with NCI-H23 lung was above 100 µM each time. For the same molecule, the TGI in the assay on NCI-H460 lung, in the assay on OVCAR-4 ovarian, in the assay on SN12C renal, in the assay on SW-620 colon and in the assay with TK-10 renal was above 100 µM each time.

In the case of `O=C(CCc1ccc(O)cc1)NCCc1cccc(OCc2ccccc2)c1`, the TGI in the assay with A549 NSCLC is above 100 µM; in the assay on COLO 205 colon, above 100 µM; in the assay on HCC-2998 colon, 41.3 µM; in the assay with HOP-62 NSCLC, above 100 µM; in the assay on MCF7 breast it was 86.6 µM; in the assay on MDA-N, 68.4 µM. For the same molecule, the TGI with NCI-H23 lung is 71.6 µM; in the assay on NCI-H460 lung, 66.6 µM; with OVCAR-4 ovarian, above 100 µM; in the assay with SN12C renal it was above 100 µM; in the assay with TK-10 renal it was 79.5 µM.

For the molecule `COc1ccc(C2=C(N)c3c(OC)cccc3C2=O)cc1`, the TGI with COLO 205 colon, with HCC-2998 colon, in the assay on HOP-62 NSCLC, in the assay on MCF7 breast, in the assay on MDA-N and in the assay on NCI-H23 lung was above 100 µM throughout. For the same molecule, the TGI with NCI-H460 lung, in the assay with OVCAR-4 ovarian, in the assay with SN12C renal and in the assay on SW-620 colon was above 100 µM throughout.
